Structures are written as SMILES.

The subject of one test is Cell Necrosis. In words: Cell necrosis assay / cell viability assay (necrosis inhibitor activity). Type of test: cell-based. The following applies: necrosis inhibitor activity; EC data for 14-191 extrapolated; read-out: EC50.
In general, EC50 refers to the concentration needed to bring the measured effect to its halfway point. Take `C[C@H]1CN(c2ncc(F)cn2)CCN1C(=O)N1N=CCC1c1ccccc1` (stereo in doubt) [Compound 111B, (S)-(4-(5-fluoropyrimidin-2-yl)-2-methylpiperazin-1-yl)(5-phenyl-4,5-dihydro-1H-pyrazol-1-yl)methanone]: the EC50 is 1 to 10 µM.
Take `NC(=O)c1ccc(OC2CN(C(=O)N3N=CCC3c3cc(F)cc(F)c3)C2)cc1F` (stereo not drawn) [Compound 155]: the EC50 was 0.001 to 1 µM.
Still for that read-out and setting: the figure for `NC(=O)c1c(F)cc(OC2CN(C(=O)N3N=CCC3c3cc(F)cc(F)c3)C2)cc1F` (stereo not drawn) [Compound 156] is 0.001 to 1 µM; for `CNC(=O)c1cc(OC2CN(C(=O)N3N=CCC3c3cc(F)cc(F)c3)C2)ccc1Cl` (stereo not drawn) [Compound 161] it is 0.001 to 1 µM; for `Cc1ccccc1CC1CN(C(=O)N2N=CCC2c2ccccc2)C1` (stereo not drawn) [Compound 37, (3-(2-methylbenzyl)azetidin-1-yl)(5-phenyl-4,5-dihydro-1H-pyrazol-1-yl) methanone] it is 0.001 to 1 µM.
Consider `N#Cc1ccc(OC2CN(C(=O)N3N=CCC3c3cc(F)cc(F)c3)C2)c(F)c1` (stereo not drawn) [Compound 136, 4-((1-(5-(3,5-difluorophenyl)-4,5-dihydro-1H-pyrazole-1-carbonyl)azetidin-3-yl)oxy)-3-fluorobenzonitrile], for which the EC50 was 0.001 to 1 µM.
For `C[C@@H]1CN(c2ncc(F)cn2)CCN1C(=O)N1N=CCC1c1ccccc1` (stereo partly drawn) [Compound 114B, ((R)-4-(5-fluoropyrimidin-2-yl)-2-methylpiperazin-1-yl)(5-phenyl-4,5-dihydro-1H-pyrazol-1-yl)methanone], the EC50 is 1 to 10 µM.
As to `O=C(N1CCN(c2ncc(F)cn2)CC1)N1N=CCC1c1cccc(F)c1` (stereo not drawn) [Compound 100, (5-(3-fluorophenyl)-4,5-dihydro-1H-pyrazol-1-yl)(4-(5-fluoropyrimidin-2-yl)piperazin-1-yl)methanone], the EC50 is 0.001 to 1 µM.
Take `O=C(N1CC(Oc2ccc(F)nc2F)C1)N1N=CC[C@H]1c1cc(F)cc(F)c1` [Compound 145]: the EC50 was 0.001 to 1 µM.
With `O=C(N1CC(Oc2ccc(F)cc2Cl)C1)N1N=CCC1c1ccccc1` (stereo not drawn) [Compound 67, (3-(2-chloro-4-fluorophenoxy)azetidin-1-yl)(5-phenyl-4,5-dihydro-1H-pyrazol-1-yl)methanone], the 50% effective concentration (EC50) is 0.001 to 1 µM.
For the molecule `O=C(N1CC(Oc2ccc3oc(=O)[nH]c3c2)C1)N1N=CCC1c1cc(F)cc(F)c1` (stereo not drawn) [Compound 185], the EC50 was 0.001 to 1 µM.
Same read-out and setting: the figure for `C[C@H]1CN(c2ncc(F)cn2)CCN1C(=O)N1N=CCC1c1ccccc1` (stereo in doubt) [Compound 111A, (S)-(4-(5-fluoropyrimidin-2-yl)-2-methylpiperazin-1-yl)(5-phenyl-4,5-dihydro-1H-pyrazol-1-yl)methanone] is 0.001 to 1 µM.

The test is the same for the next values; noted with them: necrosis inhibitor activity; compounds outside 14-191; read-out: EC50.
For the molecule `O=C1Cc2ccc(OC3CN(C(=O)N4N=CCC4c4cc(F)cc(F)c4)C3)cc2N1` (stereo not drawn) [Compound 224, 6-((1-(5-(3,5-difluorophenyl)-4,5-dihydro-1H-pyrazole-1-carbonyl)azetidin-3-yl)oxy)indolin-2-one], the EC50 fell in the range of 0.001 to 1 µM.
In the case of `CCC1Oc2cc(F)c(OC3CN(C(=O)N4N=CC[C@H]4c4cc(F)cc(F)c4)C3)cc2NC1=O` (stereo partly drawn) [Compound 250, 6-((1-((S)-5-(3,5-difluorophenyl)-4,5-dihydro-1H-pyrazole-1-carbonyl)azetidin-3-yl)oxy)-2-ethyl-7-fluoro-2H-benzo[b][1,4]oxazin-3(4H)-one], the EC50 lay in the range of 0.001 to 1 µM.
In the case of `O=C(N1CC(Oc2ccc3ccc(=O)[nH]c3c2F)C1)N1N=CC[C@H]1c1cc(F)cc(F)c1` [Compound 208, (S)-7-((1(5-(3,5-difluorophenyl)-4,5-dihydro-1H-pyrazole-1-carbonyl)azetidin-3-yl)oxy)-8-fluoroquinolin-2(1H)-one], the EC50 was in the range of 0.001 to 1 µM.
Take `O=C1COc2ccc(C=C3CN(C(=O)N4N=CC[C@H]4c4cc(F)cc(F)c4)C3)cc2N1` [Compound 278, 6-((1-(5-(3,5-difluorophenyl)-4,5-dihydro-1H-pyrazole-1-carbonyl)azetidin-3-ylidene)methyl)-2H-benzo[b][1,4]oxazin-3(4H)-one]: the EC50 was in the range of 0.001 to 1 µM.
On the same count and under the same terms, the figure for `O=C1COc2cc(F)c(OC3CN(C(=O)N4N=CC[C@H]4c4cncc(F)c4)C3)cc2N1` [Compound 194, (S)-7-fluoro-6-((1-(5-(5-fluoropyridin-3-yl)-4,5-dihydro-1H-pyrazole-1-carbonyl)azetidin-3-yl)oxy)-2H-benzo[b][1,4]oxazin-3(4H)-one] is 0.001 to 1 µM; for `O=C(N1CC(Oc2nc3ccccc3s2)C1)N1N=CCC1c1cc(F)cc(F)c1` (stereo not drawn) [Compound 276, (3-(benzo[d]thiazol-2-yloxy)azetidin-1-yl)(5-(3,5-difluorophenyl)-4,5-dihydro-1H-pyrazol-1-yl)methanone] it is 0.001 to 1 µM; for `NC(=O)c1ccc(OC2CN(C(=O)N3N=CCC3c3cc(F)cc(F)c3)C2)cc1Cl` (stereo not drawn) [Compound 227, 2-chloro-4-((1-(5-(3,5-difluorophenyl)-4,5-dihydro-1H-pyrazole-1-carbonyl)azetidin-3-yl)oxy)benzamide] it is 0.001 to 1 µM.
Turning to `O=C(N1CC(Oc2ccc3cn[nH]c3c2)C1)N1N=CC[C@H]1c1cc(F)cc(F)c1` [Compound 207], the EC50 fell in the range of 0.001 to 1 µM.
In the case of `N#Cc1cnc2ccc(N3CCN(C(=O)N4N=CC[C@H]4c4cc(F)cc(F)c4)CC3)nn12` [Compound 383, (S)-6-(4-(5-(3,5-difluorophenyl)-4,5-dihydro-1H-pyrazole-1-carbonyl)piperazin-1-yl)imidazo[1,2-b]pyridazine-3-carbonitrile], the EC50 is 0.001 to 1 µM.
`N#Cc1cccc([C@@H]2CC=NN2C(=O)N2CC(=Cc3cc4c(cc3F)CC(=O)N4)C2)c1` [Compound 373, (S)-3-(1-(3-((5-fluoro-2-oxoindolin-6-yl)methylene)azetidine-1-carbonyl)-4,5-dihydro-1H-pyrazol-5-yl)benzonitrile]: the EC50 is 0.001 to 1 µM.
As to `N#Cc1cc(F)cc([C@@H]2CC=NN2C(=O)N2CC(Oc3cc4[nH]nc(F)c4cc3F)C2)c1` [Compound 377, (S)-3-(1-(3-((3,5-difluoro-1H-indazol-6-yl)oxy)azetidine-1-carbonyl)-4,5-dihydro-1H-pyrazol-5-yl)-5-fluorobenzonitrile], the EC50 was 0.001 to 1 µM.
The same measure, in the same setting: the figure for `O=C(N1CC(Oc2ccc3ccc(=O)[nH]c3c2)C1)N1N=CC[C@H]1c1cc(F)cc(F)c1` [Compound 205, (S)-7-((1-(5-(3,5-difluorophenyl)-4,5-dihydro-1H-pyrazole-1-carbonyl)azetidin-3-yl)oxy)quinolin-2(1H)-one] is 0.001 to 1 µM; for `CNc1cccc(C=C2CN(C(=O)N3N=CC[C@H]3c3cc(F)cc(F)c3)C2)c1` [Compound 317, (S)-(5-(3,5-difluorophenyl)-4,5-dihydro-1H-pyrazol-1-yl)(3-(3-(methylamino)benzylidene)azetidin-1-yl)methanone] it is 0.001 to 1 µM; for `NC(=O)c1cc(O[C@@H]2CCN(C(=O)N3N=CC[C@H]3c3cc(F)cc(F)c3)C2)ncn1` [Compound 361] it is 0.001 to 1 µM.
In the case of `O=C(N1CCN(c2ncc(F)c(OCCN3CCOCC3)n2)CC1)N1N=CC[C@H]1c1cc(F)cc(F)c1` [Compound 287, (S)-(5-(3,5-difluorophenyl)-4,5-dihydro-H-pyrazol-1-yl)(4-(5-fluoro-4-(2-morpholinoethoxy)pyrimidin-2-yl)piperazin-1-yl)methanone], the EC50 was in the range of 0.001 to 1 µM.

Values taken from patent US12662469B2 (SIRONAX LTD, priority 2018, dated 2026).
